What was measured:
Format in all cases: in vivo
[1] = system: Septoria tritici; assay: Test E: wheat leaf blotch, test suspension sprayed on wheat seedlings, disease rating; conditions: 200 ppm test suspension;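 also: 200 ppm unless marked * meaning 40 ppm or ** meaning 10 ppm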
[2] = system: Phytophthora infestans; assay: whole plant or invertebrate; conditions: 200 ppm test suspension
[3] = system: Pythium aphanidermatum; assay: Test L: bluegrass pythium blight, test suspension sprayed on bluegrass seedlings, disease rating; conditions: 200 ppm test suspension;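 also: 200 ppm unless marked * meaning 40 ppm or ** meaning 10 ppm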
[4] = system: Fusarium graminearum; assay: whole plant or invertebrate; conditions: 200 ppm test suspension
[5] = system: Septoria nodorum; assay: Test D: wheat glume blotch, test suspension sprayed on wheat seedlings, disease rating; conditions: 200 ppm test suspension
[6] = system: Puccinia recondite f sp. tritici; assay: Test B: wheat leaf rust, test suspension sprayed on wheat seedlings, disease rating; conditions: 200 ppm test suspension;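 also: 200 ppm unless marked * meaning 40 ppm or ** meaning 10 ppm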
[7] = system: Erysiphe graminis f. sp. tritici; assay: Test A: wheat powdery mildew, test suspension sprayed on wheat seedlings, disease rating; conditions: 200 ppm test suspension; 100 = 100% disease control, 0 = no control

SMILES	Test E disease control rating [1] [%]	Test J disease control rating [2] [%]	Test L disease control rating [3] [%]	Test C disease control rating [4] [%]	Test D disease control rating [5] [%]	Test B disease control rating [6] [%]	Test A disease control rating [7] [%]
C[C@H](CO)Nc1nccc(-c2c(-c3ccc(F)cc3)nn3c2CCCC3)n1 [compound 47]	94	99	100	69	0	91	0
CC(C)CNc1nccc(-c2c(-c3ccccc3F)nn3c2CCC3)n1 [compound 98]	95	88	99	97	82	74	0
CC(CO)Nc1nccc(-c2c(-c3ccc(F)cc3)nn3c2Cc2ccccc2C3)n1 (stereo not shown) [compound 140]	49	26	99	98	0	90	0
COCC(C)Nc1nccc(-c2c(-c3cccc(F)c3)nn3c2CCC3)n1 (stereo not shown) [compound 100]	92	98	100	99	90	89	0
OCC(CO)Nc1nccc(-c2c(-c3ccc(F)cc3)nn3c2CCCC3)n1 [compound 63]	82	9	100	0	0	91	81
OC1(CNc2nccc(-c3c(-c4ccc(F)cc4)nn4c3CCCC4)n2)CC1 [compound 44]	100	65	0	99	89	85	91
CCC(CO)Nc1nccc(-c2c(-c3ccc(F)cc3)nn3c2CCCC3)n1 (stereo not shown) [compound 31]	98	80	99	94	78	95	0
CC(CO)Nc1nccc(-c2c(-c3ccsc3)nn3c2CCCC3)n1 (stereo not shown) [compound 42]	59	99	100	66	0	85	0
Fc1ccc(-c2nn3c(c2-c2ccnc(NCc4cccs4)n2)CCCC3)cc1 [compound 39]	88	0	0	60	60	67	0
CC(CO)Nc1nccc(-c2c(-c3ccccc3F)nn3c2CCCC3)n1 (stereo not shown) [compound 38]	92	95	99	96	64	94	0
CC(=O)OCC(C)Nc1nccc(-c2c(-c3ccc(F)cc3)nn3c2CCCC3)n1 (stereo not shown) [compound 67]	93	99	100	100	78	100	0
Cc1ccccc1-c1nn2c(c1-c1ccnc(NC(C)CO)n1)CCCC2 (stereo not shown) [compound 46]	50	97	100	0	0	74	0
Fc1ccc(-c2nn3c(c2-c2ccnc(Oc4ccc(-n5cccc5)cc4)n2)CCCC3)cc1 [Compound 106]	72	9	0	92	69	94	0
CC1CN1c1nccc(-c2c(-c3ccc(F)cc3)nn3c2CCCC3)n1 (stereo not shown) [compound 81]	100	99	95	98	87	98	0
Cc1cc(-c2nn3c(c2-c2ccnc(NC4CC4)n2)COCC3)ccc1F [compound 119]	87	93	92	100	99	76	61
Fc1ccc(Nc2nccc(-c3c(-c4ccc(F)cc4)nn4c3CCCC4)n2)cc1 [compound 40]	98	0	0	84	99	85	0
C[C@@H](CO)Nc1nccc(-c2c(-c3ccc(F)cc3)nn3c2CCCC3)n1 [compound 48]	99	99	100	99	0	99	0
OCCCNc1nccc(-c2c(-c3ccc(F)cc3)nn3c2CCCC3)n1 [compound 37]	68	95	93	96	0	86	70
CONc1nccc(-c2c(-c3ccc(F)cc3)nn3c2CCCC3)n1 [compound 65]	98	43	99	87	31	65	28
CC(C)Nc1nccc(-c2c(-c3ccc(F)cc3)nn3c2CCCC3)n1.Cl [compound 69]	100	97	100	100	99	97	59
c1cc(-c2c(-c3ccsc3)nn3c2CCCC3)nc(NC2CC2)n1 [compound 61]	98	97	99	98	99	94	79
CC(CO)Nc1nccc(-c2c(-c3ccc(F)cc3F)nn3c2COCC3)n1 (stereo not shown) [compound 127]	86	100	99	96	60	97	0
